Values quoted from earlier work in paper PMC9516332 (Frontiers in Oncology, 2022).
Like-named read-outs stand apart in the source and are kept apart here.

Legend:
[1] = target: panel of 255 wild-type kinases (Homo sapiens, UniProt P07949); details: kinase RET, 1 µmol/L single concentration, cited from earlier work
[2] = target: panel of 255 wild-type kinases (Homo sapiens, UniProt P49841); details: kinase GSK3β, 1 µmol/L single concentration, cited from earlier work
[3] = target: panel of 255 wild-type kinases (Homo sapiens, UniProt P54646); details: AMPKα2/β1/γ1 kinase assay, 1 µmol/L single concentration, cited from earlier work
[4] = target: T1, panel of 255 wild-type kinases (Homo sapiens, UniProt P54760); details: kinase EPHB4, 1 µmol/L single concentration, cited from earlier work
T1 sequence (P54760 16-987): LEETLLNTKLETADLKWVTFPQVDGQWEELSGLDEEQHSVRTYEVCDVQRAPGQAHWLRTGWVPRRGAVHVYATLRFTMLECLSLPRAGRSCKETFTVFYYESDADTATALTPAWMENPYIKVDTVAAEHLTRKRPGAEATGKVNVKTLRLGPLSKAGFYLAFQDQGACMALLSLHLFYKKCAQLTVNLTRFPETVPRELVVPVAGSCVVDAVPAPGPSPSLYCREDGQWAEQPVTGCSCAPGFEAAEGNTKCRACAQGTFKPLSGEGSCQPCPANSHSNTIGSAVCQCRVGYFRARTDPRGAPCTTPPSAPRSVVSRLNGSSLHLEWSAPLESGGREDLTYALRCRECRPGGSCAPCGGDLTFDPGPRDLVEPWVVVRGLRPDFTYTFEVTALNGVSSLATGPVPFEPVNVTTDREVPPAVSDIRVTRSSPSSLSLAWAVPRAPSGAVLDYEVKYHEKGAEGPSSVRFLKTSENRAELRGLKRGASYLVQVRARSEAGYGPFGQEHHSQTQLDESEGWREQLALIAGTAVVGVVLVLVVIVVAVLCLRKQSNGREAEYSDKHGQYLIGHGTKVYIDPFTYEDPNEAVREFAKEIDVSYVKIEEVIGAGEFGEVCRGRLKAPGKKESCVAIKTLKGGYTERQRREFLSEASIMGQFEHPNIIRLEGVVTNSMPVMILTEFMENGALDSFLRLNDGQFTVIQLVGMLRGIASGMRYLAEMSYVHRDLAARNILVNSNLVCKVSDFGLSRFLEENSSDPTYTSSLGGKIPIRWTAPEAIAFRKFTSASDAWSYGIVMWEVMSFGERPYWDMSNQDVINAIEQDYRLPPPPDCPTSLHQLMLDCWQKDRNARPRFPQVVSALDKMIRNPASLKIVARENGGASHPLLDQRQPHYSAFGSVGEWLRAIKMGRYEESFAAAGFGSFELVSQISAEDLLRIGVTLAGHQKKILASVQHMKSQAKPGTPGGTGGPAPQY

[5] = target: panel of 255 wild-type kinases (Homo sapiens, UniProt Q08345); details: kinase DDR1, 1 µmol/L single concentration, cited from earlier work
[6] = target: T2, panel of 255 wild-type kinases (Homo sapiens, UniProt Q15139); details: kinase PKD1, 1 µmol/L single concentration, cited from earlier work
T2 sequence (Q15139 1-912): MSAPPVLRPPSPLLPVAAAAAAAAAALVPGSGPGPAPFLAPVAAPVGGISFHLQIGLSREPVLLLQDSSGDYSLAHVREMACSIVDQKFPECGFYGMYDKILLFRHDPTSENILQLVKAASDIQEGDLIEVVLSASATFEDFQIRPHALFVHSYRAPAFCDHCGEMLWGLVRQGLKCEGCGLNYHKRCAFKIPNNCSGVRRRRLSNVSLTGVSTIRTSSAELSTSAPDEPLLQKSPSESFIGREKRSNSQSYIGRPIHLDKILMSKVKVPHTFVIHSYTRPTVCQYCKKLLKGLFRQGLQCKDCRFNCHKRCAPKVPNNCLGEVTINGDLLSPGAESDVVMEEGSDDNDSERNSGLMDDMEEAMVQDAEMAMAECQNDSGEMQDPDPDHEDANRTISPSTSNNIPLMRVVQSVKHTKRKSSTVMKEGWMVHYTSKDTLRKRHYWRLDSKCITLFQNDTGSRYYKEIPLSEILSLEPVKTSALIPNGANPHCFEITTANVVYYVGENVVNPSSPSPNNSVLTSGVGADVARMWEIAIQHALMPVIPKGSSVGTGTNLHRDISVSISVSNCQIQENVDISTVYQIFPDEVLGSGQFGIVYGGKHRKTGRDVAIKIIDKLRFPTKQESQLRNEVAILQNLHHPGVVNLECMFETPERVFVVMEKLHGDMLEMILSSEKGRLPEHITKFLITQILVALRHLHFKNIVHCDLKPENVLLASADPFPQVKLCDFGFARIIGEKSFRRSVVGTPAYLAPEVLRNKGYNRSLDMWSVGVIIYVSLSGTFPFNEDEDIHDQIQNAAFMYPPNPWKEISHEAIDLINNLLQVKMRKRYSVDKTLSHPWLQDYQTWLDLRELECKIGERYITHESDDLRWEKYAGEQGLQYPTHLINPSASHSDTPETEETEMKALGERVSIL

[7] = target: panel of 255 wild-type kinases (Homo sapiens, UniProt Q8IU85); details: CaMK1δ kinase assay, 1 µmol/L single concentration, cited from earlier work
[8] = target: panel of 255 wild-type kinases (Homo sapiens, UniProt Q9UM73); details: ALK kinase assay, 1 µmol/L single concentration, cited from earlier work
[9] = target: panel of 255 wild-type kinases (Homo sapiens, UniProt Q06187); details: BTK kinase assay, 1 µmol/L single concentration, cited from earlier work
[10] = target: panel of 255 wild-type kinases (Homo sapiens, UniProt Q13131); details: AMPKα1/β1/γ1 kinase assay, 1 µmol/L single concentration, cited from earlier work
[11] = ref DOI: 10.1158/1535-7163.MCT-18-0877
[12] = ref DOI: 10.1371/journal.pone.0092146

SMILES	%-inhibition at 1 µmol/L, RET [1, 11] [%]	%-inhibition at 1 µmol/L, GSK3β [2, 11] [%]	%-inhibition AMPKα2/β1/γ1 [3, 11] [%]	%-inhibition at 1 µmol/L, EPHB4 [4, 11] [%]	%-inhibition at 1 µmol/L, DDR1 [5, 11] [%]	%-inhibition at 1 µmol/L, PKD1 [6, 11] [%]	%-inhibition CaMK1δ [7, 11] [%]	%-inhibition ALK [8, 11] [%]	%-inhibition at 1 µmol/L, RET [1, 12] [%]	%-inhibition at 1 µmol/L, GSK3β [2, 12] [%]	%-inhibition AMPKα2/β1/γ1 [3, 12] [%]	%-inhibition at 1 µmol/L, EPHB4 [4, 12] [%]	%-inhibition BTK [9, 12] [%]	%-inhibition AMPKα1/β1/γ1 [10, 12] [%]	%-inhibition at 1 µmol/L, PKD1 [6, 12] [%]	%-inhibition CaMK1δ [7, 12] [%]	%-inhibition ALK [8, 12] [%]	%-inhibition BTK [9, 11] [%]	%-inhibition AMPKα1/β1/γ1 [10, 11] [%]	%-inhibition at 1 µmol/L, DDR1 [5, 12] [%]
C=CC(=O)N1CCC[C@@H](n2nc(-c3ccc(Oc4ccccc4)cc3)c3c(N)ncnc32)C1 [ibrutinib]	88	-4	10	27	37	3.22	5	5.45	–	–	–	–	–	–	–	–	–	–	–	–
CC(=O)Nc1cccc(-n2c(=O)n(C3CC3)c(=O)c3c(Nc4ccc(I)cc4F)n(C)c(=O)c(C)c32)c1 [trametinib]	–	–	–	–	–	–	–	–	-8	-15	1.21	-3.38	18	-12	9	-3.3	-2.82	–	–	–
Cc1cc(Nc2ncc(Cl)c(Nc3ccccc3S(=O)(=O)C(C)C)n2)c(OC(C)C)cc1C1CCNCC1 [ceritinib]	32	-2.5	40	3.73	50	27	48	99	–	–	–	–	–	–	–	–	–	-1.88	21	–
C[C@@H](Oc1cc(-c2cnn(C3CCNCC3)c2)cnc1N)c1c(Cl)ccc(F)c1Cl [crizotinib]	–	–	–	–	–	–	–	–	–	-2.11	27	83	–	16	–	-4	–	–	–	97
C=CC(=O)Nc1cc(Nc2nccc(-c3cn(C)c4ccccc34)n2)c(OC)cc1N(C)CCN(C)C [osimertinib]	7	-4	11	-3	46	22	9	99	–	–	–	–	–	–	–	–	–	84	-5	–
CCCS(=O)(=O)Nc1ccc(F)c(C(=O)c2c[nH]c3ncc(-c4ccc(Cl)cc4)cc23)c1F [vemurafenib]	–	–	–	–	–	–	–	–	32	8	6.49	3.73	2	-1.59	43	-7	1.14	–	–	52
CC(C)(C)c1nc(-c2cccc(NS(=O)(=O)c3c(F)cccc3F)c2F)c(-c2ccnc(N)n2)s1 [dabrafenib]	–	–	–	–	–	–	–	–	49	–	–	–	60	–	83	–	–	–	–	96
CO[C@@H]1[C@H](N(C)C(=O)c2ccccc2)C[C@H]2O[C@]1(C)n1c3ccccc3c3c4c(c5c6ccccc6n2c5c31)C(=O)NC4 [midostaurin]	94	–	90	1.2	98	–	–	87	–	–	–	–	–	–	–	–	–	59	86	–
CCc1cc2c(cc1N1CCC(N3CCOCC3)CC1)C(C)(C)c1[nH]c3cc(C#N)ccc3c1C2=O [alectinib]	91	2.37	6	11	16	2	-3.42	–	–	–	–	–	–	–	–	–	–	4.39	5	–
